In the assay the target is Human KRAS G12D His-tagged protein (Homo sapiens (Human), UniProt P01116, G12D). In words: KRAS G12D binding assay (TR-FRET). The conditions noted are these: GDP 20 nM, GTP-Red. On the procedure: The binding ability of the compound to KRAS G12D protein was detected by TR-FRET method, and the inhibitory activity of the compound on KRAS G12D protein was evaluated. Human KRAS G12D His-tagged (Cisbio, 63ADK000CB27PEG) protein was 100-fold diluted with PPI Eu detection buffer (Cisbio, 61DB9RBF), then 5 μL of which was added to a 384-well plate and centrifuged at 2000 rpm for 40 seconds. A 10 mM concentrated stock solution of the test compound was prepared with dimethyl sulfoxide, 3-fold serially diluted, then diluted to make a working solution (0.5% DMSO) with PPI Eu detection buffer, added to a 384-well plate at 5 μL/well, with the control group added with 0.5% dimethyl sulfoxide and the highest concentration of the test compound at 10 μM, and centrifuged at 2000 rpm for 40 seconds. An 80 nM GDP standard working solution (Cisbio, 63ADK000CB27PEG) was prepared with PPI Eu detection buffer and added to a 384-well plate at 5 μL/well, with the final concentration of GDP standard working solution at 20 nM. The plate was centrifuged at 2000 rpm for 40 seconds and reacted at room temperature for 30 minutes. 1×6His Eu cryptate antibody and GTP-Red reagent (Cisbio, 63ADK000CB27PEG) were prepared with PPI Eu detection buffer, mixed in a volume ratio of 1:1, 5 μL of which was then added to a 384-well plate, centrifuged at 2000 rpm for 40 seconds, and incubated at room temperature for 30 minutes. The fluorescence intensity at 620 nm and 665 nm was detected by a microplate reader, and the inhibitory activity of the compound on KRAS G12D protein was obtained by fitting a four-parameter equation.

Structures can show the parent of a compound that is named as a salt.

The term IC50 denotes the point on the concentration scale where inhibition reaches its midpoint. Lower therefore signals inhibition by little substance. In turn, “4-((5aS,6S,9R)-3-chloro-1-fluoro-13-(((2R,7aS)-2-fluorohexahydro-1H-pyrrolizin-7a-yl)methoxy)-5a,6,7,8,9,10-hexahydro-5H-6,9-epiminoazepino[2′,1′:3,4][1,4]oxazepino[5,6,7-de]quinazolin-2-yl)-1-(difluoromethyl)-1H-benzo[d]imidazol-2-amine ditrifluoroacetate [Compound I-23]” came in with an IC50 of 0.217 µM.
For `N#Cc1c(N)sc2cccc(-c3c(Cl)c4c5c(nc(OC[C@@]67CCCN6C[C@H](F)C7)nc5c3F)N3C[C@H]5CC[C@H](N5)[C@H]3CO4)c12` (single isomer, unassigned) [Compound I-7-1], the IC50 was found to be 0.186 µM.
On to `N#Cc1c(N)sc2c(F)ccc(-c3c(Cl)c4c5c(ncnc5c3F)N3C[C@H]5CC[C@H](N5)[C@H]3CO4)c12` (single isomer, unassigned) [Compound I-8-2], for which the IC50 was found to be 0.0604 µM.
The compound `N#Cc1c(N)sc2cccc(-c3c(Cl)c4c5c(ncnc5c3F)N3C[C@H]5CC[C@H](N5)[C@H]3CO4)c12` (single isomer, unassigned) [Compound I-10-2] registered an IC50 of 0.0758 µM.
With `N#Cc1c(N)sc2c(F)ccc(-c3c(Cl)c4c5c(nc(OC[C@@]67CCCN6C[C@H](F)C7)nc5c3F)N3C[C@H]5CC[C@H](N5)[C@H]3CO4)c12` (single isomer, unassigned) [Compound I-11-2] the figure was 0.0059 µM; with `Nc1nc2c(-c3c(Cl)c4c5c(nc(OC[C@@]67CCCN6C[C@H](F)C7)nc5c3F)N3C[C@H]5CC[C@H](N5)[C@H]3CO4)cccc2s1` (single isomer, unassigned) [Compound I-12-1], 0.0303 µM.
`Nc1nc2c(-c3c(Cl)c4c5c(nc(OC[C@@]67CCCN6C[C@H](F)C7)nc5c3F)N3C[C@H]5CC[C@H](N5)[C@H]3CO4)ccc(F)c2s1` (single isomer, unassigned) [Compound I-19-2] returned an IC50 of 0.00463 µM.
Regarding `[2H]C([2H])(Oc1nc2c3c(c(Cl)c(-c4cccc5sc(N)c(C#N)c45)c(F)c3n1)OC[C@@H]1[C@@H]3CC[C@H](CN21)N3)[C@@]12CCCN1C[C@H](F)C2` (single isomer, unassigned) [Compound I-24-1], the half-maximal inhibitory concentration (IC50) is 0.136 µM.
Compound `Nc1n[nH]c2sc3cccc(-c4c(Cl)c5c6c(nc(OC[C@@]78CCCN7C[C@H](F)C8)nc6c4F)N4C[C@H]6CC[C@H](N6)[C@H]4CO5)c3c12` (single isomer, unassigned) [Compound I-26-2] showed a 50% inhibitory concentration (IC50) of 0.011 µM.
On to `[2H]C1([2H])CC[C@@]2(C([2H])([2H])Oc3nc4c5c(c(Cl)c(-c6cccc7sc(N)c(C#N)c67)c(F)c5n3)OC[C@@H]3[C@@H]5CC[C@H](CN43)N5)C[C@@H](F)CN12` (single isomer, unassigned) [Compound I-27-1], for which the IC50 stood at 0.212 µM.
Compound `C#Cc1cccc2cc(O)cc(-c3nc4c5c(nc(OC[C@@]67CCCN6C[C@H](F)C7)nc5c3F)N3CC5CCC(N5)C3CO4)c12` (stereo partly drawn) [Compound I-1-1, 5-ethynyl-4-(1-fluoro-12-(((2R,7aS)-2-fluorohexahydro-1H-pyrrolizin-7a-yl)methoxy)-5a,6,7,8,9,10-hexahydro-5H-4-oxa-3,10a,11,13,14-pentaaza-6,9-methanonaphtho[1,8-ab]heptan-2-yl)naphthalen-2-ol] returned an IC50 of 0.011 µM.
With `C#Cc1cccc2cc(O)cc(-c3nc4c5c(nc(OC[C@@]67CCCN6C[C@H](F)C7)nc5c3F)N3C[C@H]5CC[C@H](N5)[C@H]3CO4)c12` [Compound I-4, 5-ethynyl-4-((5aS,6S,9R)-1-fluoro-12-(((2R,7aS)-2-fluorohexahydro-1H-pyrrolizin-7a(5H)-yl)methoxy)-5a,6,7,8,9,10-hexahydro-5H-4-oxa-3,10a,11,13,14-pentaaza-6,9-methanonaphtho[1,8-ab]heptan-2-yl)naphthalen-2-ol ditrifluoroacetate] the figure was 0.00272 µM.
With `C#Cc1cccc2cc(O)cc(-c3nc4c5c(nc(OC[C@@]67CCCN6C[C@H](F)C7)nc5c3F)N3C[C@@H]5CC[C@@H](N5)[C@@H]3CO4)c12` [Compound I-5, 5-ethynyl-4-((5aR,6R,9S)-1-fluoro-12-(((2R,7aS)-2-fluorohexahydro-1H-pyrrolizin-7a(5H)-yl)methoxy)-5a,6,7,8,9,10-hexahydro-5H-4-oxa-3,10a,11,13,14-pentaaza-6,9-methanonaphtho[1,8-ab]heptan-2-yl)naphthalen-2-ol ditrifluoroacetate] the figure was 0.0254 µM.
As to `N#Cc1c(N)sc2cccc(-c3c(Cl)c4c5c(ncnc5c3F)N3CC5CCC(N5)C3CO4)c12` (stereo not drawn) [Compound I-6-2, 2-amino-4-(3-chloro-1-fluoro-5a,6,7,8,9,10-hexahydro-5H-6,9-epiminoazepino[2′,1′:3,4][1,4]oxazepino[5,6,7-de]quinazolin-2-yl)benzo[b]thiophene-3-carbonitrile (trans) trifluoroacetate], the IC50 is 0.0536 µM.
With `N#Cc1c(N)nn2cccc(-c3c(Cl)c4c5c(nc(OC[C@@]67CCCN6C[C@H](F)C7)nc5c3F)N3C[C@H]5CC[C@H](N5)[C@H]3CO4)c12` [Compound I-13, 2-amino-4-((5aS,6S,9R)-3-chloro-1-fluoro-13-(((2R,7aS)-2-fluorohexahydro-1H-pyrrolizin-7a-yl)methoxy)-5a,6,7,8,9,10-hexahydro-5H-6,9-epiminoazepino[2′,1′:3,4][1,4]oxazepino[5,6,7-de]quinazolin-2-yl)pyrazolo[1,5-a]pyridine-3-carbonitrile] the figure was 0.0325 µM; with `Nc1cc2c(-c3c(Cl)c4c5c(nc(OC[C@@]67CCCN6C[C@H](F)C7)nc5c3F)N3C[C@H]5CC[C@H](N5)[C@H]3CO4)c(Cl)ccc2s1` [Compound I-15, 5-chloro-4-((5aS,6S,9R)-3-chloro-1-fluoro-13-(((2R,7aS)-2-fluorohexahydro-1H-pyrrolizin-7a-yl)methoxy)-5a,6,7,8,9,10-hexahydro-5H-6,9-epiminoazepino[2′,1′:3,4][1,4]oxazepino[5,6,7-de]quinazolin-2-yl)benzo[b]thiophen-2-amine ditrifluoroacetate], 0.0381 µM; with `Nc1cc2cc(-c3c(Cl)c4c5c(nc(OC[C@@]67CCCN6C[C@H](F)C7)nc5c3F)N3C[C@H]5CC[C@H](N5)[C@H]3CO4)ccc2s1` [Compound I-16, 5-((5aS,6S,9R)-3-chloro-1-fluoro-13-(((2R,7aS)-2-fluorohexahydro-1H-pyrrolizin-7a-yl)methoxy)-5a,6,7,8,9,10-hexahydro-5H-6,9-epiminoazepino[2′,1′:3,4][1,4]oxazepino[5,6,7-de]quinazolin-2-yl)benzo[b]thiophen-2-amine ditrifluoroacetate], 0.024 µM.
In turn, `CC(Oc1nc2c3c(c(Cl)c(-c4cccc5sc(N)c(C#N)c45)c(F)c3n1)OCC1C3CCC(CN21)N3)C12CCCN1CC(F)C2` [Compound I-17-1, 2-amino-4-((5aS,6S,9R)-3-chloro-1-fluoro-13-(1-((2R,7aS)-2-fluorohexahydro-1H-pyrrolizin-7a-yl)ethoxy)-5a,6,7,8,9,10-hexahydro-5H-6,9-epiminoazepino[2′,1′:3,4][1,4]oxazepino[5,6,7-de]quinazolin-2-yl)benzo[b]thiophene-3-carbonitrile] yielded a 50% inhibitory concentration (IC50) of 0.646 µM.
For `CC(Oc1nc2c3c(c(Cl)c(-c4cccc5sc(N)c(C#N)c45)c(F)c3n1)OC[C@H]1[C@@H]3CC[C@H](CN21)N3)[C@@]12CCCN1C[C@@H](F)C2` (stereo partly drawn) [Compound I-17-2, 2-amino-4-((5aS,6S,9R)-3-chloro-1-fluoro-13-(1-((2R,7aS)-2-fluorohexahydro-1H-pyrrolizin-7a-yl)ethoxy)-5a,6,7,8,9,10-hexahydro-5H-6,9-epiminoazepino[2′,1′:3,4][1,4]oxazepino[5,6,7-de]quinazolin-2-yl)benzo[b]thiophene-3-carbonitrile], the IC50 was 0.0069 µM.
`CC(Oc1nc2c3c(c(Cl)c(-c4c(F)ccc5sc(N)c(C#N)c45)c(F)c3n1)OC[C@@H]1[C@@H]3CC[C@H](CN21)N3)[C@@]12CCCN1C[C@H](F)C2` (stereo partly drawn) [Compound I-18, 2-amino-4-((5aS,6S,9R)-3-chloro-1-fluoro-13-(1-((2R,7aS)-2-fluorohexahydro-1H-pyrrolizin-7a-yl)ethoxy)-5a,6,7,8,9,10-hexahydro-5H-6,9-epiminoazepino[2′,1′:3,4][1,4]oxazepino[5,6,7-de]quinazolin-2-yl)-5-fluorobenzo[b]thiophene-3-carbonitrile ditrifluoroacetate] returned an IC50 of 0.022 µM.
For `CN1CCC[C@@H]1COc1nc2c3c(c(Cl)c(-c4cccc5sc(N)c(C#N)c45)c(F)c3n1)OC[C@@H]1[C@@H]3CC[C@H](CN21)N3` [Compound I-29] the value was 0.0108 µM.

The values above are taken from patent publication US20240327425A1, “KRAS G12D INHIBITOR AND USE THEREOF” (SHANGHAI DE NOVO PHARMATECH CO., LTD., priority 2021, published 2024).
